Values quoted from earlier work, collected in patent US12100485B2, “Machine learning and molecular simulation based methods for enhancing binding and activity prediction” (The Board of Trustees of the Leland Stanford Junior …, priority 2018, dated 2024).

Test system: μOR
Details: not given
In the case of `CN1CC[C@]23c4c5ccc(O)c4O[C@H]2[C@@H](O)CC[C@@]3(O)[C@H]1C5` [hydromorphinol], the Action is given as “agonist”.
In the case of `CN1CC[C@]23c4c5ccc(O)c4O[C@H]2C(=O)C=C[C@H]3[C@H]1C5` [morphinone], the Action is listed as “agonist”.
For `Oc1cccc([C@@]23CCCC[C@H]2CN(CC2CC2)CC3)c1` [ciprefadol], the Action is given as “agonist”.
In the case of `CN(C)C(=O)C(CCN1CCC(O)(c2ccc(Cl)cc2)CC1)(c1ccccc1)c1ccccc1` [loperamide], the Action is listed as “agonist”.
For `CCC(=O)C(CC(C)N1CCCCC1)(c1ccccc1)c1ccccc1` (centres unmarked) [dipipanone], the Action is given as “agonist”.
For `CCOC(=O)C1(c2ccccc2)CCN(CCc2ccccc2)CC1` [pheneridine], the Action is listed as “agonist”.
For `CC[C@H](O)C(C[C@@H](C)N(C)C)(c1ccccc1)c1ccccc1` [betamethadol], the Action is listed as “agonist”.
In the case of endomorphin-1, the Action is listed as “agonist”.
For `CN1CC[C@]2(C)C[C@@H](Cc3ccc(O)cc32)C1` [eptazocine], the Action is given as “antagonist”.
For `CCC(=O)O[C@](Cc1ccccc1)(c1ccccc1)[C@H](C)CN(C)C` [dextropropoxyphene], the Action is given as “agonist”.
In the case of `CCOC(=O)C1(c2ccccc2)CCN(C)CC1` [pethidine], the Action is given as “agonist”.
For `CCC(O)C(CC(C)N(C)C)(c1ccccc1)c1ccccc1` (centres unmarked) [dimepheptanol], the Action is listed as “agonist”.
For `CC[C@@H](OC(C)=O)C(C[C@@H](C)N(C)C)(c1ccccc1)c1ccccc1` [alphacetylmethadol], the Action is listed as “agonist”.
In the case of `COc1cccc2c1[C@]13CCN(CC4CC4)[C@H](C2)[C@]1(OC)CCC(=O)C3` [cyprodime], the Action is listed as “antagonist”.
For `CN(C)[C@H](Cc1ccccc1)c1ccccc1` [lefetamine], the Action is listed as “agonist”.
For `C=CCN1CC[C@]23c4c5ccc(O)c4O[C@H]2/C(=N/N=C2\CC[C@@]4(O)[C@H]6Cc7ccc(O)c8c7[C@@]4(CCN6CC=C)[C@H]2O8)CC[C@@]3(O)[C@H]1C5` [naloxonazine], the Action is listed as “Antagonists”.
In the case of `COc1ccc2c3c1O[C@H]1[C@@H](O)CC[C@H]4[C@@H](C2)N(C)CC[C@@]341` [methyldihydromorphine], the Action is given as “agonist”.
For `CCOC(=O)C1(c2ccccc2)CCN(CCC(C#N)(c2ccccc2)c2ccccc2)CC1` [diphenoxylate], the Action is given as “agonist”.
For `CCOC(=O)C(CCN1CCOCC1)(c1ccccc1)c1ccccc1` [dioxaphetyl_butyrate], the Action is listed as “agonist”.
In the case of `CN1CC[C@]2(C)c3cc(O)ccc3C[C@H]1C2(C)CCC(=O)CCC1CCCC1` (some centres unmarked) [quadazocine], the Action is listed as “Antagonists”.
In the case of `CN1CC[C@]23CCCC[C@H]2[C@H]1Cc1ccc(O)cc13` [levorphanol], the Action is given as “agonist”.
For `CN1CC[C@]23c4c5ccc(O)c4O[C@H]2CCC[C@H]3[C@H]1C5` [desomorphine], the Action is given as “agonist”.
For `CC1C2Cc3ccc(O)cc3C1(C)CCN2CCc1ccccc1` (centres unmarked) [phenazocine], the Action is listed as “agonist”.
In the case of endomorphin-2, the Action is listed as “agonist”.
In the case of `CCOC(=O)C1(c2ccccc2)CCC=CC1N(C)C` (centres unmarked) [tilidine], the Action is listed as “agonist”.
In the case of `O=C(CN1CC[C@]23CCCC[C@H]2[C@H]1Cc1ccc(O)cc13)c1ccccc1` [levophenacylmorphan], the Action is given as “agonist”.
In the case of `Oc1ccc2c(c1)[C@@]13CCCC[C@H]1[C@@H](C2)N(CCc1ccccc1)CC3` [phenomorphan], the Action is listed as “agonist”.
For `CN1CCC23CCCCC2C1Cc1ccc(O)cc13` (stereo not drawn) [racemorphan], the Action is given as “agonist”.
For `CCC(=O)C(CC(C)N1CCOCC1)(c1ccccc1)c1ccccc1` (centres unmarked) [phenadoxone], the Action is given as “agonist”.
For `CCOC(=O)C1(c2ccccc2)CCN(CCC(O)c2ccccc2)CC1` (centres unmarked) [phenoperidine], the Action is given as “agonist”.
In the case of `Oc1ccc2c(c1)[C@@]13CCCC[C@@]1(O)[C@@H](C2)N(CC1CC1)CC3` [oxilorphan], the Action is listed as “Antagonists”.
For `C[N@+]1(CC2CC2)CC[C@]23CC(=O)CC[C@@]2(O)[C@H]1Cc1ccc(C(N)=O)c(O)c13` [methylsamidorphan], the Action is listed as “antagonist”.
In the case of `C[C@@H](NC(=O)[C@@H](N)Cc1ccc(O)cc1)C(=O)NCC(=O)N(C)[C@@H](Cc1ccccc1)C(=O)NCCO` [damgo], the Action is listed as “agonist”.
For `CCC(=O)C(c1ccccc1)(c1ccccc1)C(C)CN(C)C` (centres unmarked) [isomethadone], the Action is given as “agonist”.
For `CC(C)OC(=O)C1(c2ccccc2)CCN(C)CC1` [properidine], the Action is given as “agonist”.
In the case of `CO[C@@]12CCC(=O)[C@@H]3Oc4c(O)ccc5c4[C@@]31CCN(C)[C@@H]2C5` [14-methoxydihydromorphinone], the Action is listed as “agonist”.
In the case of `N/N=C1/CC[C@@]2(O)[C@H]3Cc4ccc(O)c5c4[C@@]2(CCN3CC2CC2)[C@H]1O5` [naltrexazone], the Action is given as “Antagonists”.
In the case of `CCC(=O)C(C[C@@H](C)N(C)C)(c1ccccc1)c1ccccc1` [levomethadone], the Action is given as “agonist”.
For `CC[C@H](OC(C)=O)C(C[C@H](C)N(C)C)(c1ccccc1)c1ccccc1` [levacetylmethadol], the Action is listed as “agonist”.
In the case of `COCCN1CC[C@]23c4c5ccc(O)c4O[C@H]2C(=O)CC[C@@]3(O)[C@H]1C5` [semorphone], the Action is listed as “agonist”.
For `CCC(=O)OC1(c2ccccc2)CCN(C)C1C` (centres unmarked) [prodilidine], the Action is given as “agonist”.
For `O=C(/C=C/c1ccc(Cl)cc1)N[C@@]12CCC(=O)[C@@H]3Oc4c(O)ccc5c4[C@@]31CCN(CC1CC1)[C@@H]2C5` [clocinnamox], the Action is given as “antagonist”.
For `CCC(=O)OC1(c2ccccc2)CC(C)N(C)CC1C` (centres unmarked) [trimeperidine], the Action is given as “agonist”.
In the case of `CCC(=O)OC1(c2ccccc2)CCCN(C)CC1C` (centres unmarked) [proheptazine], the Action is given as “agonist”.
For `Oc1ccc2c3c1O[C@H]1[C@H](F)CC[C@@]4(O)[C@@H](C2)N(CC2CC2)CC[C@]314` [cyclofoxy], the Action is given as “antagonist”.
In the case of `CN1CC[C@]23c4c5ccc(O)c4O[C@H]2[C@@H](O[C@@H]2O[C@H](C(=O)O)[C@@H](O)[C@H](O)[C@H]2O)C=C[C@H]3[C@H]1C5` [morphine-6-glucuronide], the Action is listed as “agonist”.
For `C=CCN1CC[C@]23c4c5ccc(O)c4O[C@H]2[C@@H](OCCOCCOCCOCCOCCOCCOCCOC)CC[C@@]3(O)[C@H]1C5` [naloxegol], the Action is given as “Antagonists”.
For `CN1CC[C@]23c4c5ccc(O)c4O[C@H]2[C@@H](O)CC[C@H]3[C@H]1C5` [dihydromorphine], the Action is listed as “agonist”.
In the case of endomorphin, the Action is given as “agonist”.
For `CCOC(=O)C1(c2ccccc2)CCCN(C)CC1` (centres unmarked) [ethoheptazine], the Action is listed as “agonist”.
For `CC[C@H](OC(C)=O)C(C[C@@H](C)N(C)C)(c1ccccc1)c1ccccc1` [betacetylmethadol], the Action is given as “agonist”.
In the case of `CNC1(c2ccccc2Cl)CCCCC1=O` (centres unmarked) [ketamine], the Action is given as “agonist”.
For `CO[C@@]12CCC(=O)[C@]3(C)Oc4c(O)ccc5c4[C@@]31CCN(C)[C@@H]2C5` [14-methoxymetopon], the Action is listed as “agonist”.
For `NC(=O)c1cccc([C@H]2C[C@H]3CC[C@@H](C2)N3CCN(CC2CCCCC2)C(=O)[C@@H](O)CO)c1` [axelopran], the Action is listed as “antagonist”.
For `CN1CC[C@]23c4c5ccc(O)c4O[C@H]2/C(=N\N)CC[C@@]3(O)[C@H]1C5` [oxymorphazone], the Action is given as “agonist”.
In the case of `CO[C@H]1C=C[C@H]2[C@H]3Cc4ccc(O)c5c4[C@@]2(CCN3C)[C@H]1O5` [heterocodeine], the Action is given as “agonist”.
In the case of `CCC(=O)C1(c2cccc(O)c2)CCN(C)CC1` [ketobemidone], the Action is given as “agonist”.
In the case of `C[C@H](CN1CCOCC1)C(C(=O)N1CCCC1)(c1ccccc1)c1ccccc1` [dextromoramide], the Action is listed as “agonist”.
In the case of `C=CCN1CC[C@]23c4c5ccc(O)c4O[C@H]2/C(=N\N)CC[C@@]3(O)[C@H]1C5` [naloxazone], the Action is given as “Antagonists”.
In the case of `NC(=O)c1ccc2c(c1O)[C@]13CCN(CC4CC4)[C@H](C2)[C@]1(O)CCC(=O)C3` [samidorphan], the Action is listed as “Antagonists”.
For `CCOC(=O)C1(c2cccc(O)c2)CCN(C)CC1` [hydroxypethidine], the Action is given as “agonist”.
In the case of `CC[C@@H]1CN2CC[C@]3(Nc4cccc(OC)c4C3=O)[C@@H]2C[C@@H]1/C(=C\OC)C(=O)OC` [mitragynine_pseudoindoxyl], the Action is given as “agonist”.
In the case of `CCC(=O)C(CC(C)N(C)C)(c1ccccc1)c1ccccc1` (centres unmarked) [methadone], the Action is given as “agonist”.
For `CCOC(=O)C1(c2ccccc2)CCN(CCCNc2ccccc2)CC1` [piminodine], the Action is given as “agonist”.
For `CCOC(=O)C1(c2ccccc2)CCN(CCOCCO)CC1` [etoxeridine], the Action is listed as “agonist”.
For `CCOC(=O)C1(c2ccccc2)CCN(CCN2CCOCC2)CC1` [morpheridine], the Action is listed as “agonist”.
For `CN1CC[C@]23c4c5ccc(O)c4O[C@@]2(C)C(=O)CC[C@H]3[C@H]1C5` [metopon], the Action is listed as “agonist”.
In the case of `CCOC(=O)C1(c2ccccc2)CCN(CCc2ccc(N)cc2)CC1` [anileridine], the Action is listed as “agonist”.
In the case of `CN1CC[C@]23c4c5ccc(O)c4O[C@H]2[C@@H](O)C=C[C@H]3[C@H]1C5` [morphine], the Action is listed as “agonist”.
For `CCCCCN[C@@]12C=CC(=O)[C@@H]3Oc4c(O)ccc5c4[C@@]31CCN(C)[C@@H]2C5` [pentamorphone], the Action is listed as “agonist”.
In the case of `CCOC(=O)C1(c2ccccc2)CCN(CC(O)c2ccccc2)CC1` (centres unmarked) [oxpheneridine], the Action is listed as “agonist”.
In the case of `CCC(OC(C)=O)C(CC(C)NC)(c1ccccc1)c1ccccc1` (centres unmarked) [noracymethadol], the Action is listed as “agonist”.
In the case of `CC1=CC[C@H]2[C@H]3Cc4ccc(O)c5c4[C@@]2(CCN3C)[C@H]1O5` [methyldesorphine], the Action is given as “agonist”.
For `O=C(N[C@@H]1CC[C@@]2(O)[C@H]3Cc4ccc(O)c5c4[C@@]2(CCN3CC2CC2)[C@H]1O5)c1cccc(I)c1` [ibntxa], the Action is given as “agonist”.
In the case of `CCOC(C(=O)OCCN(C)C)(c1ccccc1)c1ccccc1` [dimenoxadol], the Action is listed as “agonist”.

Same assay, conditions: known pharmacology, training dataset
For `C[N@+]1(CC2CC2)CC[C@]23c4c5ccc(O)c4O[C@H]2C(=O)CC[C@@]3(O)[C@H]1C5` [methylnaltrexone], the Action is listed as “antagonist”.
For `C=C1CC[C@@]2(O)[C@H]3Cc4ccc(O)c5c4[C@@]2(CCN3CC2CC2)[C@H]1O5` [nalmefene], the Action is given as “Antagonists”.
For `C=CCN1CC[C@]23c4c5ccc(O)c4O[C@H]2C(=O)CC[C@@]3(O)[C@H]1C5` [naloxone], the Action is listed as “Antagonists”.
For `C[C@H]1CN(C[C@H](Cc2ccccc2)C(=O)NCC(=O)O)CC[C@@]1(C)c1cccc(O)c1` [alvimopan], the Action is given as “antagonist”.
For `CN(C)CC(C)(C)C(=O)c1ccccc1` [dimethylaminopivalophenone], the Action is listed as “agonist”.
